{
  "source": "paper PMC10591956",
  "about": "(Journal of controlled release : official journal of the …, 2023)",
  "origin": "cited, not measured here",
  "tested_on": "intraocular pressure (IOP)",
  "settings": "single intracameral injection, normotensive rabbits",
  "data": [
    {"smiles": "Brc1c(NC2=NCCN2)ccc2nccnc12", "note": "[brimonidine]", "values": [
      {"measurement": "duration of IOP reduction", "result": 7, "unit": "days"}
    ]}
  ]
}
